Test results published in patent US20120107428A1, “REPELLENTS FOR PESTIFEROUS SOCIAL WASPS” (Sterling International Inc., priority 2010, published 2012).

Assays:
[1] = test system: vespid wasps (paper wasps, hornets and yellowjackets); assay: Field trapping experiments, repellency stated for vespid wasps as a whole (yellowjackets and paper wasps; summaries); format: in vivo, Vespula pensylvanica; Polistes dominulus; conditions: for activity at doses tested: Experiment 9; for repellency on either yellowjackets or paper wasps or both to the attractant AA/2 MB: Experiments 1-3, late August to early September
Experimental: (§1) Eleven field trapping experiments were carried out from late August to mid-October 2009 in residential and woody areas around Spokane, Wash., USA, mostly using the trap known by the designation Rescue® W•H•Y (except on one occasion that Rescue® Reusable Yellowjacket Traps were used for a natural food attractant; see below for details). The commercial W•H•Y trap has a top chamber and a bottom chamber and is described in U.S. Patent Application Publication No. 2009/0151228. The top chamber is baited with two attractants—one of which is a solid contained in a vial (2-methyl-1-butanol), and the other is a liquid mixed with water (acetic acid). The bottom chamber is baited with a liquid attractant (heptyl butyrate) poured onto a cotton pad. Separation of the two types of attractants (otherwise antagonistic to each other when released from the same chamber) in two chambers creates two focal attraction sources from one trap for different species of wasps, hornets, and yellowjackets. […] In a special occasion, the commercial Rescue® Reusable Yellowjacket Traps were each baited with 10 g of chopped bacon (loaded into a cartridge) as a natural protein food attractant. Traps were hung 1.5-2.0 m above the ground on either fences or tree branches ca. 5 m apart between each trap and at least 15 m between sets. For each trapping experiment, three sets of traps (i.e., three physical replicates of each treatment) were deployed with their initial trap positions within each set being randomized. To minimize positional effects and obtain more replications, wasp collections and trap re-randomization were carried out when 5-10 wasps were caught in the best traps. Each replicate lasted several days depending on wasp flight activity. Captured wasps were removed from the traps and kept in the zip-bags before returning to the laboratory for recording of the species, gender status, and catch. Repellent candidates (individuals or mixtures) were released from polyethylene bags (3×5 cm; with a fabric felt) with various thicknesses from 2-12 mil (see release rates listed in tables); they were employed inside the same trap chamber as the attractant.
(§2) Experiment 1 tested five individual essential oils (pennyroyal, lemongrass, peppermint, clove, and citronella) and two known mosquito repellents (i.e., major components of catnip oil), E/Z-nepetalactone and Z/E-nepetalactone plus a blank control against a mixture of attractant [acetic acid (AA) and 2-methyl-1-butanol (2 MB)] using the W•H•Y traps (both attractant and repellent candidates were released from the top chamber) from for eight consecutive days from August to early September. Experiment 2 tested nine individual essential oils (ylang ylang, vetiver, myrrh, patchouli, geranium, eucalyptus, camphor, spearmint, and wintergreen) plus a blank control against a mixture of attractant (AA+2 MB) using the W•H•Y traps (both attractant and repellent candidates were released from the top chamber) for eight consecutive days from late August to early September. Experiment 3 tested seven individual essential oils (Roman chamomile, sage, fennel seed, rosemary, thyme, anise, and lavender) plus a blank control against a mixture of attractant (AA+2 MB) using the W•H•Y traps (both attractant and repellent candidates were released from the top chamber) for eight consecutive days from late August to early September. Experiment 4 tested two essential oil mixtures (3EO-mix: clove, geranium, and lemongrass in ca. 1:1:1 ratio; and 4EO-mix: clove, geranium, lemongrass, and rosemary in ca. 1:1:1:1 ratio) plus a blank control against a mixture of attractant (AA+2 MB) using the W•H•Y traps (both attractant and repellent candidates were released from the top chamber) for 13 consecutive days in September; the essential oil mixtures alone without attractant were tested in the same experiment.

[2] = test system: worker antennae of Vespula pensylvanica, Dolichovespula maculata, Polistes dominulus, and P. aurifer; assay: GC-EAD/MS analysis of SPME headspace samples of essential oils: antennal responses; conditions: for antennal (EAD) response to component of rosemary oil: V. pensylvanica and D. maculata antennae, FIG. 3; for antennal (EAD) response to component of geranium oil: V. pensylvanica, D. maculata, P. dominulus, or P. aurifer antennae
Experimental: Headspace volatiles from greater than 10 types of essential oils (1 ml each in a closed 20 ml glass vial) were sampled via Solid-Phase Micro-Extraction (SPME) (CAR/PDMS, 85 μm, Supelco, Bellefonte, Pa.) for 20-30 sec before GC-EAD and GC-MS analyses.
Paper wasp [European paper wasp (Polistes dominulus) or golden paper wasp (P. aurifer)] and yellowjacket [Western yellowjacket (Vespula pensylvanica) or Bald-faced hornet (Dolichovespula maculata)] workers for electrophysiological study were collected from their nests and kept alive at 4° C. before testing.
SPME samples of the various essential oils were injected splitless into a Varian CP-3800 GC equipped with a polar column (HP-INNOWAX; 30 m×0.53 mm×1.0 μm film thickness; Agilent Technologies, Wilmington, Del., USA) and a 1:1 effluent splitter that allowed simultaneous flame ionization detection (FID) and electroantennographic detection (EAD) of either a yellowjacket or paper wasp worker antenna to the separated volatile compounds. Helium was used as the carrier gas, and the injector and detector temperatures were 250° C. and 300° C., respectively. Column temperature was 50° C. for 1 min, rising to 240° C. at 10° C./min, and then held for 10 min. The outlet for the EAD was held in a humidified air stream flowing at 0.5 m/sec over the antennal preparation. EAD recordings were made using silver wire-glass capillary electrodes filled with Beadle-Ephrussi Ringer on freshly cut antennae. The antennal signals were stored and analyzed on a PC equipped with a serial IDAC interface box and the program EAD ver. 2.5 (Syntech, Hilversum, The Netherlands).
Compounds were identified by comparison of retention times with those of authentic standards and with mass spectra of standards.

[3] = test system: Paper wasps (mainly Polistes dominulus, plus a few of P. aurifer); assay: Field trapping, Rescue W•H•Y traps baited with attractant AA/2MB: captures of paper wasps; format: in vivo; conditions: N 9
Experimental: as §1, §2

[4] = test system: Yellowjackets (mainly Vespula pensylvanica (ca. 90%), plus V. vulgaris, V. germanica, and Dolichovespula maculata); assay: Field trapping, Rescue W•H•Y traps baited with attractant AA/2MB: captures of yellowjackets; format: in vivo; conditions: N 9
Experimental: as §1, §2

[5] = test system: Paper wasps (mainly Polistes dominulus, plus a few of P. aurifer); assay: Field trapping, Rescue W•H•Y traps baited with attractant heptyl butyrate: captures of paper wasps; format: in vivo
Experimental: (§3) Eleven field trapping experiments were carried out from late August to mid-October 2009 in residential and woody areas around Spokane, Wash., USA, mostly using the trap known by the designation Rescue® W•H•Y (except on one occasion that Rescue® Reusable Yellowjacket Traps were used for a natural food attractant; see below for details). The commercial W•H•Y trap has a top chamber and a bottom chamber and is described in U.S. Patent Application Publication No. 2009/0151228. The top chamber is baited with two attractants—one of which is a solid contained in a vial (2-methyl-1-butanol), and the other is a liquid mixed with water (acetic acid). The bottom chamber is baited with a liquid attractant (heptyl butyrate) poured onto a cotton pad. Separation of the two types of attractants (otherwise antagonistic to each other when released from the same chamber) in two chambers creates two focal attraction sources from one trap for different species of wasps, hornets, and yellowjackets. In order to test potential repellency of essential oils or EAD-active synthetic candidate compounds on different types of attractants, W•H•Y traps were baited with either a top attractant or a bottom attractant depending on the experiments. […]

[6] = test system: yellowjackets (mainly Vespula pensylvanica); assay: Field observation of landing and approaching of yellowjackets at heptyl butyrate attractant source (experiment 7); format: in vivo; conditions: Experiment 7, FIG. 1, attractant alone, 15 minutes observation replicates
Experimental: In addition, the repellency of the essential oil mixture (3EO-mix; at 0 cm and 50 cm above the heptyl butyrate attractant) on the landing behavior of yellowjackets was field observed (as experiment 7) on a September day for roughly 1.5 hours in Spokane, Wash. This observation test was conducted in the sun by setting up in a line east to west four portable light gray folding tables (45.7×66.0×67.3 cm) in a level area of grass near a vineyard. These tables were placed approximately 3 m apart. Chairs were set up approximately 4 m away from the tables for the scientists conducting the observations. On each table a black lab support stand was used with a movable metal bar in the horizontal direction clamped to the support stand for placing a repellent PE-bag dispenser (2 ml of 3EO-mix) or blank PE-bag at either 0 cm or 50 cm above the attractant, heptyl butyrate. A white towel was used to cover the black base of the support stand to provide a uniform color. A circle felt pad (3.5 cm diameter) loaded with 3 ml of heptyl butyrate as attractant or left blank for a negative control in a Petri dish (9 cm diameter) was placed on the base of the stand. […]
Trap catch data (number of wasps/trap/visit) and landing/approaching numbers were transformed by log (X+1) and the transformed means were analyzed by ANOVA, followed by the Duncan's multiple-range test (SPSS 16.0 for Windows) at α=0.05.

[7] = test system: Yellowjackets (mainly Vespula pensylvanica (ca. 90%), plus V. vulgaris, V. germanica, and Dolichovespula maculata); assay: Field trapping, Rescue W•H•Y traps baited with attractant heptyl butyrate: captures of yellowjackets; format: in vivo; conditions: Table 5, Experiment 5; treatment alone (essential oil mix alone, or attractant HB alone); 13 days in September; N 18
Experimental: as §3

[8] = Table 10, Experiment 11, attractant AA/2MB alone (row AA/2MB) or plus chemical, 16 days in October
[9] = Table 8, Experiment 9, attractant AA/2MB alone (row AA/2MB) or plus chemical, 13 days in September
[10] = Table 9, Experiment 10, attractant AA/2MB alone (row AA/2MB) or plus chemical, 18 days end of September through mid-October
[11] = Table 1, Experiment 1, attractant AA/2MB alone (row AA/2MB) or plus essential oil/chemical in same trap chamber, eight days late August to early September

## COc1ccc(C)cc1 [4-Methylanisole, 4-methylanisole]
[1]; Experiment 11, AA/2 MB, at 90 mg/day release
  repellency to either yellowjackets or paper wasps: did not show significant repellency
[2]; V. pensylvanica and P. dominulus worker antennae
  antennal (EAD) response to component of ylang ylang oil: strong and repeatable antennal responses
[3]; [8]
  Mean/trap/visit ± SE Paper wasps: 0.9 ± 0.5 a wasps/trap/visit
[4]; [8]
  Mean/trap/visit ± SE Yellowjackets: 10.0 ± 5.0 b wasps/trap/visit

## CC1=CCC(O)(C(C)C)CC1 (stereo not shown) [4-Terpineol, 4-terpineol]
[1]; AA/2 MB
  activity at doses tested: inactive
[2]
  antennal (EAD) response to component of rosemary oil: significant EAD-responses
[3]; [9]
  Mean/trap/visit ± SE Paper wasps: 2.0 ± 0.7 ab wasps/trap/visit
[4]; [9]
  Mean/trap/visit ± SE Yellowjackets: 23.3 ± 5.6 b wasps/trap/visit

## CC(C)=CCC/C(C)=C/CO [Geraniol, geraniol]
[1]; Experiment 10, AA/2 MB
  repellency at the dose tested: not different from the attractant alone
[2]
  antennal (EAD) response to component of geranium oil: significant and consistent EAD-responses
[3]; [10]
  Mean/trap/visit ± SE Paper wasps: 2.9 ± 0.9 b wasps/trap/visit
[4]; [10]
  Mean/trap/visit ± SE Yellowjackets: 21.8 ± 6.0 cd wasps/trap/visit

## CCCCCCCOC(=O)CCC [HB, heptyl butyrate]
[5]; Experiment 5
  attraction of paper wasps to heptyl butyrate: not attracted
[5]; Table 5, Experiment 5, treatment alone (essential oil mix alone, or attractant HB alone), 13 days in September, N 18
  Mean/trap/visit ± SE Paper wasps: 1.3 ± 0.6 a wasps/trap/visit
[6]
  average number of yellowjackets landing: 5
[6]; within 0.5 m
  average number of yellowjackets approaching: 12
[7]
  Mean/trap/visit ± SE Yellowjackets: 39.7 ± 13.6 b wasps/trap/visit

## CC1=CCC(C(C)(C)O)CC1 (stereo not drawn) [α-Terpineol, α-terpineol]
[1]; AA/2 MB
  activity at doses tested: inactive
[2]
  antennal (EAD) response to component of rosemary oil: significant EAD-responses
[3]; [9]
  Mean/trap/visit ± SE Paper wasps: 2.2 ± 0.9 ab wasps/trap/visit
[4]; [9]
  Mean/trap/visit ± SE Yellowjackets: 21.9 ± 5.7 b wasps/trap/visit

## CC(C)=CCCC(C)CCO (stereo not drawn) [β-Citronellol, β-citronellol]
[1]; AA/2 MB
  activity at doses tested: inactive
[2]
  antennal (EAD) response to component of geranium oil: significant and consistent EAD-responses
[3]; [9]
  Mean/trap/visit ± SE Paper wasps: 5.1 ± 1.6 b wasps/trap/visit
[4]; [9]
  Mean/trap/visit ± SE Yellowjackets: 36.2 ± 6.8 b wasps/trap/visit

## E/Z-nepetalactone [EZ-Neptalactone]
[1]
  repellency on either yellowjackets or paper wasps or both to the attractant AA/2 MB: partially significant repellency
[3]; [11]
  Mean/trap/visit ± SE Paper wasps: 3.2 ± 1.1 bc wasps/trap/visit
[4]; [11]
  Mean/trap/visit ± SE Yellowjackets: 11.2 ± 3.6 b wasps/trap/visit

## Z/E-nepetalactone [ZE-Neptalactone]
[1]
  repellency on either yellowjackets or paper wasps or both to the attractant AA/2 MB: partially significant repellency
[3]; [11]
  Mean/trap/visit ± SE Paper wasps: 11.3 ± 4.5 c wasps/trap/visit
[4]; [11]
  Mean/trap/visit ± SE Yellowjackets: 52.1 ± 16.2 cd wasps/trap/visit
